Measurements published in patent US9895353B2, “Use of L-tryptophan for the treatment of parasomnias” (Zzeemag Inc., priority 2013, dated 2018).

Key:
[1] = system: subjects presenting with parasomnia; test: Case studies of subjects treated with L-tryptophan for parasomnia; format: in vivo, human
Description: A detailed analysis of a number of subjects presenting with parasomnia who were treated with L-tryptophan was performed. A selection of case reports of subjects treated with L-tryptophan are summarized below. Remarkably, L-tryptophan is useful for the treatment of subjects presenting with a variety of abnormal behavioral or physiological events occurring in association with sleep, specific sleep stages, or sleep-wake transition.

mild insomnia = conditions: lower doses (<4 g), without altering sleep architecture; cited from earlier work
subjects with parasomnia = test: Retrospective study of subjects with parasomnia (follow-up questionnaire and phone interview); format: in vivo, human
Description: A retrospective study was performed to evaluate the effects of L-tryoptophan on subjects with parasomnia and to look for sleep architectural differences in children before and after treatment.
Confidential charts were selected of boys and girls between the ages of 3 and 18 years with a clinical diagnosis of Parasomnias, and including behaviours of sleep walking, sleep talking, nightmares or night-terrors.
The 165 subjects that were included in the retrospective study of confidential charts were prescribed treatment with L-Tryptophan or Clonazepam, or no treatment. The exclusion criteria were children under the age 3 years or over the age 18 years and those undergoing treatment for Parasomnia at the time of the sleep study.
The diagnosis of parasomnia was made by a sleep physician and based on the clinical history together with confirmation from the polysomnographic sleep study findings.
An overnight polysomnographic sleep study and questionnaire data were collected during this study for each subject. Each of the subjects at the sleep clinic responded to a battery of questionnaires consisting of: Pediatric Daytime Sleepiness Scale (PDSS), THAT alertness scale, SNAP assessment for ADHD symptoms, Centre for Epidemiologic Studies in depression scale modified for children (CES-DC), and SCARED anxiety scale.
A follow-up questionnaire was formulated to assess for their symptoms following treatment with Tryptophan to compare values before and after treatment. A follow-up phone interview was conducted to assess the frequency of Parasomnias during and after treatment. The follow-up questionnaire included: daytime sleepiness, level of attention and concentration, ability to wake up in the morning, number of hours of sleep at night and incidence of temper tantrums.
Ninety nine (60%) of the 165 children were prescribed L-tryptophan to manage their parasomnia. The remaining were either prescribed Clonazepam (n=32) or were not prescribed anything. The latter reflected parental preference and/or clinical judgement.

[2] = Case A, current dose of 1.75 mg
[3] = Case B, 3 g one hour before bedtime
[4] = children treated with L-tryptophan
[5] = out of 69 patients who took L-Tryptophan
[6] = patients aged 3-18 years who took L-Tryptophan (n=69)
[7] = patients who took L-Tryptophan (n=69)
[8] = subjects administered L-tryptophan

N[C@@H](Cc1c[nH]c2ccccc12)C(=O)O [L-tryptophan, (2S)-2-amino-3-(1H-indol-3-yl)propanoic acid]
daytime fatigue [1, 2]: less problematic | nightly sleep talking [1, 2]: ceased | patient's sleep [1, 2]: improved | time to fall asleep after retiring to bed [1, 2]: 15 to 20 min | daytime somnolence or fatigue [1, 3]: no observation of daytime somnolence or fatigue | night terrors [1, 3]: no night terrors | nightly bedwetting / enuretic episodes [1, 3]: still continues to experience nightly enuretic episodes | tolerability ([1]; Case B, six capsules (3 g) one hour before bedtime): able to tolerate | daytime endurance ([1]; Case C, dosage of 2 mg): improved significantly | sleepwalking ([1]; Case C, dosage of 2 mg): No observed parasomnic behaviours of sleepwalking | subject's sleep ([1]; Case C, dosage of 2 mg): marked improvement | bruxism ([1]; Case D, 2 g daily): declined significantly | sleepwalking ([1]; Case D, 2 g daily): no episodes of sleep walking | frequency of bedwetting ([1]; Case E, 4.5 g daily): declined substantially | sleepwalking and sleep talking ([1]; Case E, 4.5 g daily): no longer walked or talked in their sleep | sleep overall ([1]; Case F, dose of 2.25 mg daily): improved noticeably | tolerability ([1]; Case F, dose of 2.25 mg daily): tolerated L-tryptophan well | decrease in sleep latency (mild insomnia): about half | frequency of parasomnic events (subjects with parasomnia; [4]): reduced | number of arousals in sleep (subjects with parasomnia; [4]): decreasing | side effects observed, number of patients (subjects with parasomnia; [5]): 7 | side effects observed, percent of patients (subjects with parasomnia; [5]): 10% | improvement in parasomnia symptoms (B or R), number of patients (subjects with parasomnia; [6]): 55 | improvement in parasomnia symptoms (B or R), percent of patients (subjects with parasomnia; [6]): 80% | no change in parasomnia symptoms (U), number of patients (subjects with parasomnia; [7]): 10 | no change in parasomnia symptoms (U), percent of patients (subjects with parasomnia; [7]): 14% | worsening of parasomnia symptoms (W), number of patients (subjects with parasomnia; [7]): 4 | worsening of parasomnia symptoms (W), percent of patients (subjects with parasomnia; [7]): 6% | alertness during the day (subjects with parasomnia; [8]): increased | attention during the day (subjects with parasomnia; [8]): better | number of temper tantrums (subjects with parasomnia; [8]): reduced
